Measured values published in patent US20240399032A1, “HYDROGEL FOR PROMOTING GROWTH OF MESENCHYMAL STEM CELLS, AND PREPARATION METHOD AND APPLICATION METHOD THEREOF” (The Fifth People's Hospital of Hainan Province, priority 2023, published 2024).

What was measured:
[1] = system: Staphylococcus aureus model rat; test: Treatment of wound (foot gangrene) of Staphylococcus aureus model DM rat; format: in vivo; settings: applied daily on wound of left hindfoot
Description: 30 specific pathogen free (SPF) Sprague Dawley (SD) male rats aged 6-8 weeks old (weight 190 g or so) are used to construct as the DM rat model. Specifically, the STZ solution is prepared and used, and the prepared STZ solution is used within 10 minutes. The STZ solution is injected into left lower abdomens of the rats with a single dose of 55 milligrams per kilogram (mg/kg). After a week of the intraperitoneal injection of the STZ solution, the rats are in abrosia but can have water for 12 hours (h), thereafter blood glucose of the rats is detected, and the rats with blood glucose value above 12.6 […] are selected as the DM rat model. The 30 SPF SD male rats are all constructed as the DM rat model, 12 rats died before diabetic foot administration, and 2 rats died during the administration but not appearing effectiveness. Six DM model rats are selected. At the third week, dorsal sides of hindfoots of the DM model rats are subcutaneously injected 10 μL of suspension containing more than […] Staphylococcus aureus, thereby obtaining a DM animal model with foot infection (also referred to as extremity infection). It can be seen from FIG. 1, on the sixth day, spontaneous foot gangrene occurs, and on the seventh day and eighth day, the foot gangrene is gradually obvious. […]

skin scratch model rat = test: Treatment of wound of skin scratch model DM rat; format: in vivo; settings: applied daily on wound of left hindfoot; for time until wound healed: mecobalamin H1 group (wound without administration healed too), epalrestat M1 group (without administration healed on eighteenth day)
Description: 30 specific pathogen free (SPF) Sprague Dawley (SD) male rats aged 6-8 weeks old (weight 190 g or so) are used to construct as the DM rat model. Specifically, the STZ solution is prepared and used, and the prepared STZ solution is used within 10 minutes. The STZ solution is injected into left lower abdomens of the rats with a single dose of 55 milligrams per kilogram (mg/kg). After a week of the intraperitoneal injection of the STZ solution, the rats are in abrosia but can have water for 12 hours (h), thereafter blood glucose of the rats is detected, and the rats with blood glucose value above 12.6 […] are selected as the DM rat model. The 30 SPF SD male rats are all constructed as the DM rat model, 12 rats died before diabetic foot administration, and 2 rats died during the administration but not appearing effectiveness. Six DM model rats are selected for normal feeding for four weeks. After anesthesia, round skin wounds with each diameter of 5 mm are created on dorsal sides of hindfoots of the DM model rats to generate foot gangrene, as shown in FIG. 2. And then, the DM model rats continue to be fed regularly and the skin wounds of the DM model rats are observed every day. Therapeutic drug of mecobalamin (H1 group) is applied daily on the wound disposed on the left hindfoot of the skin scratch model rat, and then the wound of the model rat is observed. […] Therapeutic drug of epalrestat (M1 group) is applied daily on the wound disposed on the left hindfoot of the skin scratch model rat, and then the wound of the model rat is observed. After 13 days of continuous administration, the wound healed, and at the same time, the wound of the skin scratch model rat without administration healed on the eighteenth day. […] The hydrogels (T1 group, T2 group, T3 group, T4 group) are applied daily on the wounds disposed on the left hindfoots of four skin scratch model rats, and then the wounds of the 4 model rats are observed. […]

Row | SMILES | time of administration until wound / foot gangrene healed ([1]; mecobalamin H4 group (untreated wound healed as well), hydrogel T10 group (control healed after 7 days)) | healing of treated wound compared with untreated wound / control group ([1]; mecobalamin H4 group, hydrogel T10 group, same area of foot gangrene) | effect on wound healing (skin scratch model rat; H1, M1, T1-T4 groups) | time until wound healed (skin scratch model rat)
1 | C/C1=C2/[N-][C@H]([C@H](CC(N)=O)[C@@]2(C)CCC(=O)NC[C@@H](C)OP(=O)([O-])O[C@H]2[C@@H](O)[C@@H](n3cnc4cc(C)c(C)cc43)O[C@@H]2CO)[C@]2(C)N=C(/C(C)=C3N=C(/C=C4N=C1[C@@H](CCC(N)=O)C\4(C)C)[C@@H](CCC(N)=O)[C@]\3(C)CC(N)=O)[C@@H](CCC(N)=O)[C@]2(C)CC(N)=O.[CH3-].[Co+3] [mecobalamin, Mecobalamin] | 5 days | no significant difference | no significant promoting effect | 11 days
2 | CC(/C=C1\SC(=S)N(CC(=O)O)C1=O)=C\c1ccccc1 [epalrestat, Epalrestat] |  |  |  | 13 days
